This is an account of results in patent US20050232912A1, “Enzyme phosphorylating ser46 of p53” (priority 2001, published 2005).

The test system of the assay is Human breast cancer cells MCF-7. In words: Ser46-phosphorylating activity of nuclear extracts from doxorubicin-treated cells, Western blotting with anti-p53-phosphorylated-Ser46 antibodies. The class given is cell-based. The note with it: MCF-7 cells, 3 μM doxorubicin, during 12 hours after treatment, substrate GST-p53. On the procedure: Human breast cancer cells MCF-7 (hereinafter called “MCF-7”, ATCC) were cultured in DMEM medium (Sigma) containing 10% fetal bovine serum (GIBCO BRL) on 15 cm^2 dishes (Corning) up to 90% confluent state. These cells were treated with final 3 μM doxorubicin (Sigma, the same to adriamycin) by addition of its aqueous solution to the medium. After allowed to stand in an incubator, the cells were harvested at various time points.
The harvested cells from one dish were suspended and solubilized in 500 μl of cytoplasm extraction buffer (10 mM HEPES pH7.9, 2 mM MgCl2, 0.1 mM EDTA, 0.1 mM EGTA, 1% Nonidet NP-40, DTT 1 mM, Na3VO4 1 mM, NaF 5 mM, PMSF 0.5 mM, KCl 10 mM, leupeptin 5 μg/ml, antipain 5 μg/ml, chymostatin 5 μg/ml, pepstatinA 2 μg/ml). The solbilized cells were centrifuged at 15,000 rpm for 15 min. The pellets obtained were mixed with 100 μl nuclear extraction buffer (10 mM HEPES pH7.9, 2 mM MgCl2, 0.1 mM EDTA, 0.1 mM EGTA, 1% Nonidet NP-40, DTT 1 mM, Na3VO4 1 mM, NaF 5 mM, PMSF 0.5 mM, KCl 10 mM, NaCl 500 mM, leupeptin 5 μg/ml, antipain 5 μg/ml, chymostatin 5 μg/ml, pepstatinA 2 μg/ml), suspended well and centrifuged at 15,000 rpm for 15 min. […]
Next, the enzyme activity of the nuclear extracts was assayed using the antibodies. […] The phosphorylation of GST-p53 was detected in Western blotting probed with anti-p53-phosphorylated-Ser46 antibodies.
(In western blotting, separated proteins are transferred to a membrane and probed.)

Take `COc1cccc2c1C(=O)c1c(O)c3c(c(O)c1C2=O)C[C@@](O)(C(=O)CO)C[C@@H]3O[C@H]1C[C@H](N)[C@H](O)[C@H](C)O1` [doxorubicin]: the “activation of enzyme phosphorylating Ser46 of p53” value is “greatly induced”.
